In US5019574A, “3,4-diaminoquinoline and 3,4-diamino-5,6,7,8-tetrahydroquinoline compounds useful for improving psychoneural function” (Chugai Seiyaku Kabushiki Kaisha, priority 1988, dated 1991):
Read-outs that look alike come from different tables or passages of the source.

How the values were obtained:
male ICR mice = test: Improvement of memory and learning ability tested by passive avoidance response; assay type: in vivo; conditions: dose 10 (μg/kg i.p.); retention trial 24 hours after acquisition trial
Description: Improvement of memory and Learning Ability Tested by Passive Avoidance Response:
Four groups of male ICR mice (10-14 weeks old). each consisting of 10 animals, were used in the experiment. Except for one control group, the mice were administered with selected compounds of the present invention. The experimental chamber consisted of a light and a dark compartment and an electric current shock source was connected to the floor grid in the dark compartment.
The experimental sessions consisted of acclimation. acquisition, and retention trials and were performed for […], one trial per day. In the acclimation trial, animals were placed in the light compartment of the experimental chamber and left there for 5 minutes to acclimate them to the apparatus. In the acquisition trial which was conducted on the 2nd day, the animals were placed in the light compartment and when they entered the dark compartment, they were confined and given an a.c. electric shock (1 mA) through the floor grid for 10 seconds. In the retention trial which was conducted 24 hours after the acquisition trial, the animals were placed in the light compartment of the chamber and the step-through latency (i.e., the time required for the animals to enter the dark compartment) was measured. A physiological saline solution was administered at the acclimation trial to all of the animals. At the acquisition trial, selected compounds were administered in amounts of 10 μg/kg of body weight (1 ml/100 g). The control group was administered the same amount of physiological saline solution 60 minutes before the start of the trial. All administrations were intraperitoneal.

[1] = tested on: uptake of dopamine into synaptosomes; test: Inhibition of catecholamine uptake: 3H-dopamine uptake into synaptosomes; assay type: biochemical, rats (F344/Crj); conditions: 1 μM; dopamine uptake in the absence of drugs taken as 100
Description: (§1) A crude synaptosomal fraction (P2) was obtained from the brain of rats (F344/Crj) in the usual manner. In accordance with the method of S. H. Snyder and J. T. Coyle described in Journal of Pharmacology and Experimental Therapeutics, 165(1), 78-86, 1969, the fraction P2 was incubated in a Krebs-Henseleit bicarbonate buffer solution at 37° C. for 10 minutes together with 50 nM ^3 H-norepinephrine (0.25 jμCi). Thereafter, the uptake of norepinephrine into the synaptosomes was measured by the filtration method. Selected compounds were added at a concentration of 1 μM to the solution being incubated and their effect on norepinephrine uptake was examined. The control drug was tetrahydroaminoacridine (THA).
(§2) Inhibition of Catecholamine Uptake:
The uptake of dopamine into synaptosomes was measured by repeating the procedure of Test Example 2 except that 50 nM ^3 H-norepinephrine (0.25 μCi) was replaced by 15 nM ^3 H-dopamine (0.68 μCi). The control drug was tetrahydroaminoacridine (THA). The result is shown in Table 5 in terms of percentage, with dopamine uptake in the absence of drugs being taken as 100.

[2] = tested on: norepinephrine uptake into the synaptosomes; test: Inhibition of catecholamine uptake: 3H-norepinephrine uptake into synaptosomes; assay type: biochemical, rats (F344/Crj); conditions: 1 μM; norepinephrine uptake in the absence of drug compounds taken as 100
Description: as §2, §1
The results are shown in Table 3 in terms of percentage, with norepinephrine uptake in the absence of drug compounds being taken as 100.

acetylcholinesterase = target: T1, acetylcholinesterase (Electrophorus electricus, UniProt O42275); test: Inhibition of acetylcholinesterase activity; assay type: biochemical; conditions: activity without drug compound taken as 100, average of three measurements, read-out: Inhibition rate (%)
T1 construct: purchased Sigma C-2888
T1 sequence (O42275 24-633): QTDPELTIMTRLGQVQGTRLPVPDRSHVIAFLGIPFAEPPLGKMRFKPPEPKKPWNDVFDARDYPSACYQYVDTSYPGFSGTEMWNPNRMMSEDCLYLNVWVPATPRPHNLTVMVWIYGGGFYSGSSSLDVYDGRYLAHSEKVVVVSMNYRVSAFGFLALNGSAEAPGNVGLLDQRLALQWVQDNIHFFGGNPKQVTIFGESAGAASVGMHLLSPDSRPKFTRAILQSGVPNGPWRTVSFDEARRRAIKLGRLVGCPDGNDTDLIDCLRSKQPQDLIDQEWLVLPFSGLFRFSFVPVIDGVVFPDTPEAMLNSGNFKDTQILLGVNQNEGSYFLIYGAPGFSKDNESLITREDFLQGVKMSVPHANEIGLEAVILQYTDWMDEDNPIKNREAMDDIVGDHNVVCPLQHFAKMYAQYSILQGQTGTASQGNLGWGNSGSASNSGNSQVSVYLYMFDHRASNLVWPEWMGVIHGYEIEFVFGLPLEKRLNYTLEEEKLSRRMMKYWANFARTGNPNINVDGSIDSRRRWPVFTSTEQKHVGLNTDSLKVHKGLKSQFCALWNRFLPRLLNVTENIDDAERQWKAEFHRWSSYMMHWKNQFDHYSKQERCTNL
Description: Inhibition of Acetylcholinesterase Activity:
Acetylcholinesterase activity was assayed in accordance with the method of S. H. Sterri and F. Fonnum described in European Journal of Biochemistry, 91: 215-222, 1978. The method consisted of incubating 0.5 μU of authentic acetylcholinesterase ([…]) (Sigma, No. C-2888) at 30° C. for 15 minutes in a 20 mM sodium phosphate buffer (pH 7.4). with 1.3 mM [1^-14 C] acetylcholine (0.025 μCi) being used as a substrate. Selected compounds of the general formula (I) were added at a concentration of 1 μM to the reaction solution and the resulting effect on enzymatic activity was evaluated.
The result was obtained as the average of three measurements and shown in Table 2 in terms of percentage, with the activity for the case where no drum compound was added being taken as 100.

MAO-B = target: T2, MAO-B (Rattus norvegicus, UniProt P19643); test: Inhibition of monoamine oxidase: MAO-B; assay type: biochemical, rats (F344/Crj); conditions: read-out: Inhibition rate (%) MAO-B
T2 construct: A crude synaptosomal fraction (P2) was obtained from the brain of rats (F344/Crj); from tissue; host or cells: rat (F344/Crj) brain, crude synaptosomal fraction (P2), homogenized
T2 sequence (P19643 1-520): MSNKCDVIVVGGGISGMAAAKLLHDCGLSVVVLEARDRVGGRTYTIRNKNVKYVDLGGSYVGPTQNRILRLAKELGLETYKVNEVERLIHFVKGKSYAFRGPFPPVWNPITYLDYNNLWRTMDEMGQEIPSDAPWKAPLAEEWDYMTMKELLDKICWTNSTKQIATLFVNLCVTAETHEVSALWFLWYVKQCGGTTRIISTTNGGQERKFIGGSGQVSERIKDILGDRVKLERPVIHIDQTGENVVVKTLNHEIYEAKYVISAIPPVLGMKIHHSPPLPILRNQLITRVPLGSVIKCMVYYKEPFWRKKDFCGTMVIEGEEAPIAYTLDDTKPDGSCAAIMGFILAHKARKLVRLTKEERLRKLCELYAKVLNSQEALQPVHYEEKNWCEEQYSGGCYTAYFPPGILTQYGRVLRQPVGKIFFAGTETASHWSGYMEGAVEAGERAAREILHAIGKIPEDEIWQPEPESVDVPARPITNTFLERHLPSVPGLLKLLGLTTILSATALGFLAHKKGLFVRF
Description: (§3) Inhibition of Monoamine Oxidase (MAO):
(§4) A crude synaptosomal fraction (P2) was obtained from the brain of rats (F344/Crj) in the usual manner and homogenized to perform MAO activity measurements. The substrate was 12 μM [^14 C]-serotonin in the case of MAO-A activity measurements, and 5 μM [^14 C]-2-phenethylamine in the case of MAO-B activity measurements. In accordance with the method of R. J. Wurtman and J. Axelrod described in Biochemical Pharmacol. 12, […], 1963, the homogenates were incubated in 100 mM phosphate buffer (pH 7.4) at 37° C. for 20 minutes and the effect of adding selected compounds at a concentration of 10 μM was evaluated.

MAO-A = target: T3, MAO-A (Rattus norvegicus, UniProt P21396); test: Inhibition of monoamine oxidase: MAO-A; assay type: biochemical, rats (F344/Crj); conditions: read-out: Inhibition rate (%) MAO-A
T3 construct: A crude synaptosomal fraction (P2) was obtained from the brain of rats (F344/Crj); from tissue; host or cells: rat (F344/Crj) brain, crude synaptosomal fraction (P2), homogenized
T3 sequence (P21396 1-526): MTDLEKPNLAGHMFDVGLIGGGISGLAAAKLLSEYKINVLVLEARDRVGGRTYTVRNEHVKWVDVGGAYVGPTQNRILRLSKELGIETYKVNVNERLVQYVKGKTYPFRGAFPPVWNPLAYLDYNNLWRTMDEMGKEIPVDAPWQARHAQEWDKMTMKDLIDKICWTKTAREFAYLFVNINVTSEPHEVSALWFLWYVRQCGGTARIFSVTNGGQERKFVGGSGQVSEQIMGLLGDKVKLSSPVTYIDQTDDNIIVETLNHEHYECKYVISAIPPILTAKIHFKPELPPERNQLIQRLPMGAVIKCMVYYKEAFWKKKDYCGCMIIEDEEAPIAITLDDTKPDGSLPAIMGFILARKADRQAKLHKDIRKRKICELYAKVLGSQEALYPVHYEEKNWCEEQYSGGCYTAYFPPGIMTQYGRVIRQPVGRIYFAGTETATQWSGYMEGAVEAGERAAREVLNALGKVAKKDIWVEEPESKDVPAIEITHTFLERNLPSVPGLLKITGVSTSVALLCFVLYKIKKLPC
Description: as §3, §4

[3] = 10 μM, 5 μM [14C]-2-phenethylamine substrate, None = 100
[4] = 10 μM, 12 μM [14C]-serotonin substrate, None = 100

## Nc1c(N2CCOCC2)c(C2CCCCC2)nc2ccccc12 [Compound 18, 4-amino-2-cyclohexyl-3-morpholinoquinoline]
Male ICR mice
  Step through latency: 116.4 ± 29.2 s

## CCOc1nc2ccccc2c(N)c1N1CCCCC1 [Compound 44]
Male ICR mice
  Step through latency: 90.4 ± 12.4 s

## CCN(CC)c1c(NC2CCCCC2)nc2c(c1N)CCCC2 [Compound 34]
[1]
  Inhibition rate (%): 84.8%
[2]
  Inhibition rate (%): 80.0%

## CCCC(C)c1nc2c(c(N)c1N1CCOCC1)CCCC2 (centres unmarked) [Compound 40]
Male ICR mice
  Step through latency: 113.1 ± 29.6 s

## Nc1c2c(nc(C3CCCCC3=O)c1N1CCOCC1)CCCC2 (centres unmarked) [Compound 41]
acetylcholinesterase
  inhibition at 1 µM: 4.2%

## Nc1c2c(nc3ccccc13)CCCC2 [control, tetrahydroaminoacridine, reference compound]
MAO-B
  inhibition at 10 µM: 90.3%
MAO-A
  inhibition at 10 µM: 60.8%

## Nc1ccnc(C2CCCCC2=O)c1N1CCOCC1 (centres unmarked) [Compound 49]
[1]
  Inhibition rate (%): 67.5%
MAO-B; [3]
  inhibition at 10 µM: 71.2%
MAO-A; [4]
  inhibition at 10 µM: 54.5%

## Nc1c2c(nc(C3CCCCC3)c1N1CCOCC1)CCCC2 [Compound 19, 4-amino-2-cyclohexyl-3-morpholino-5,6,7,8-tetrahydroquinoline]
Male ICR mice
  Step through latency: 107.1 ± 29.9 s
[2]
  Inhibition rate (%): 83.2%
acetylcholinesterase
  inhibition at 1 µM: 21.8%

## CN1CCN(c2cnc3ccccc3c2N)CC1 [Compound 2]
Male ICR mice
  Step through latency: 92.1 ± 13.5 s
acetylcholinesterase
  inhibition at 1 µM: 27.1%

## CCNc1nc2ccccc2c(N)c1N1CCOCC1 [Compound 43, 4-amino-2-ethylamino-3-morpholinoquinoline]
Male ICR mice
  Step through latency: 109.1 ± 13.4 s
[2]
  Inhibition rate (%): 78.8%

## Nc1c2c(nc(C3CCCCC3)c1N1CCCCC1)CCCC2 [Compound 28]
[1]
  Inhibition rate (%): 80.5%
[2]
  Inhibition rate (%): 85.2%
acetylcholinesterase
  inhibition at 1 µM: 22.2%

## Nc1c(N2CCCCC2)c(C2CCCCC2)nc2ccccc12 [Compound 26]
[1]
  Inhibition rate (%): 55.4%
[2]
  Inhibition rate (%): 68.2%

## CCNc1nc2ccccc2c(N)c1N1CCCCC1 [Compound 45]
[1]
  Inhibition rate (%): 82.3%
Male ICR mice
  Step through latency: 70.7 ± 6.8 s
[2]
  Inhibition rate (%): 79.8%

## Nc1c2c(nc(NC3CCCCC3)c1N1CCOCC1)CCCC2 [Compound 16]
Male ICR mice
  Step through latency: 102.1 ± 22.3 s
[2]
  Inhibition rate (%): 88.1%
acetylcholinesterase
  inhibition at 1 µM: 25.9%

## Nc1c(N2CCCCC2)cnc2ccccc12 [Compound 1, 4-amino-3-piperidinoquinoline]
[2]
  Inhibition rate (%): 69.1%

## Nc1c2c(nc(Nc3ccccc3)c1N1CCOCC1)CCCC2 [Compound 15, 4-amino-2-anilino-3-morpholino-5,6,7,8-tetrahydroquinoline]
Male ICR mice
  Step through latency: 80.4 ± 14.6 s
[2]
  Inhibition rate (%): 85.4%
acetylcholinesterase
  inhibition at 1 µM: 37.2%

## CCN(CC)c1c(C2CCCCC2O)nc2c(c1N)CCCC2 (centres unmarked) [Compound 23]
[1]
  Inhibition rate (%): 83.0%
[2]
  Inhibition rate (%): 73.7%

## Nc1c(N2CCOCC2)c(Nc2ccccc2)nc2ccccc12 [Compound 13, 4-amino-2-anilino-3-morpholinoquinoline]
Male ICR mice
  Step through latency: 100.2 ± 17.8 s

## CCCN(CCC)c1c(C2CCCCC2)nc2c(c1N)CCCC2 [Compound 32]
[1]
  Inhibition rate (%): 71.0%
Male ICR mice
  Step through latency: 109.7 ± 16.6 s
[2]
  Inhibition rate (%): 73.2%
acetylcholinesterase
  inhibition at 1 µM: 28.7%

## Nc1c(N2CCCCC2)c(Nc2ccccc2)nc2ccccc12 [Compound 35]
acetylcholinesterase
  inhibition at 1 µM: 28.3%

## Nc1c2c(nc(C3CCCCC3O)c1N1CCOCC1)CCCC2 (centres unmarked) [Compound 6, 4-amino-g-(2.-hydroxycyclohexyl)-3-morpholino-5,6,7,8-tetrahydroquinoline]
Male ICR mice
  Step through latency: 144.8 ± 45.1 s
[2]
  Inhibition rate (%): 82.6%
acetylcholinesterase
  inhibition at 1 µM: 36.9%

## CCNc1c(N2CCOCC2)nc2ccccc2c1N [Compound 52, 4-amino-3-ethylamino-2-morpholinoquinoline]
[1]
  Inhibition rate (%): 57.8%
MAO-B; [3]
  inhibition at 10 µM: 63%
[2]
  Inhibition rate (%): 79.8%
MAO-A; [4]
  inhibition at 10 µM: 0%

## CCN(CC)c1c(C2CCCCC2)nc2c(c1N)CCCC2 [Compound 25]
[1]
  Inhibition rate (%): 76.4%
[2]
  Inhibition rate (%): 75.3%
acetylcholinesterase
  inhibition at 1 µM: 30.1%

## Nc1c(N2CCCCC2)cnc2ccccc12 [drawing 149]
MAO-B; [3]
  inhibition at 10 µM: 82.9%
MAO-A; [4]
  inhibition at 10 µM: 44.1%

## CCN(CC)c1c(C2CCCCC2=O)nc2ccccc2c1N (centres unmarked) [Compound 22]
Male ICR mice
  Step through latency: 144.8 ± 25.5 s

## CCN(CC)c1c(C2CCCCC2)nc2ccccc2c1N [Compound 24]
[1]
  Inhibition rate (%): 59.6%
Male ICR mice
  Step through latency: 94.2 ± 14.7 s
[2]
  Inhibition rate (%): 68.2%

## Nc1ccnc(C2CCCCC2=O)c1N1CCCCC1 (centres unmarked) [Compound 50]
Male ICR mice
  Step through latency: 83.4 ± 14.8 s

## CCCC(C)c1nc2ccccc2c(N)c1N1CCOCC1 (centres unmarked) [Compound 39]
Male ICR mice
  Step through latency: 108.3 ± 16.0 s
[2]
  Inhibition rate (%): 71.9%

## CCCN(CCC)c1c(C2CCCCC2O)nc2c(c1N)CCCC2 (centres unmarked) [Compound 30]
[1]
  Inhibition rate (%): 79.2%
[2]
  Inhibition rate (%): 76.9%
